Experiments:
P. putida LS46 [1] = assay: Growth of P. putida LS46 in the presence of salicylic acid; format: cell-based, Pseudomonas putida; details: salicylic acid at 10 mM
Description: (§1) Salicylic acid has been used as an inhibitor of β-oxidation in plant, animal, and bacterial cells. […] Salicylic acid at 10 mM inhibited P. putida LS46 growth. Therefore, 1-5 mM concentration of salicylic acid was studied for its effect on mcl-PHA production by P. putida LS46. To separate volumes of Ramsey's liquid medium supplemented with 2% of glucose were added: (i) no salicylic acid (control), (ii) 1.0 nM salicylic acid, (iii) 2.5 mM salicylic acid, or (iv) 5.0 salicylic acid. After sterilization, the liquid media were dispensed into flasks which were then each inoculated with 1% inoculum of P. putida LS46, and then cultured for 48 h. Cultures were then harvested and their cdw, the percentage accumulation of mcl-PHAs in the cells, and the mol % monomer composition of C8 […] the mcl-PHAs were determined. […] 3-hydroxyoctanoate decreased, while 3-hydroxydecanoate increased, in the presence of 2.5 mM and 5.0 mM salicylic acid, compared with the control (Table 6).

P. putida LS46 [2] = assay: Effects of salicylic acid on production of mcl-PHAs by P. putida LS46; format: cell-based, Pseudomonas putida; details: Ramsey's medium + 2% glucose, 48 h
Description: Six of the microbial isolates (i.e., LS1, LS5, LS33, LS34, LS39, LS46) that produced epifluorescence under UV illumination were separately cultured for 72 h in: (i) 200 mL LB broth, and (ii) 200 mL LB broth supplemented with 3 g/L glucose. The microbial cells were centrifuged at 4500 g for 20 min in a Sorvall RC6-Plus centrifuge. The microbial pellets were washed twice in 0.85% NaCl and then dried at 80° C. for 48 h. The intracellular PHA contents and PHA composition were determined by GC-MS following the method taught by Braunegg et al. (1978, Eur. J. Appl. Microbiol. Biotechnol. 6:29-37). Dried cells (20 mg) were mixed with 1 mL chloroform and 1 mL methanol containing 15% sulphuric acid. Benzoic acid (1 mg/mL) was used as an internal standard. The suspensions were refluxed at 100° C. for 4 h, after which, 0.5 ml of water were added to each suspension. The mixtures were centrifuged at 4000×g. The lower chloroform layers were separated and analyzed using a GC-MS fitted FID detector and aHP-5 capillary column. The initial oven temperature was set at 75° C. for 6 min and then was increased to 265° C. with a ramping rate of 20° C./min.
as §1, with “To separate volumes of Ramsey's liquid medium supplemented with 2% of glucose were added: (i) no salicylic acid (control), (ii) 1.0 nM salicylic acid, (iii) 2.5 mM salicylic acid, or (iv) 5.0 salicylic acid.” left out

P. putida LS46 [3] = assay: as above; format: cell-based, Pseudomonas putida; details: 1.0 mM salicylic acid; Ramsey's medium + 2% glucose; 48 h
P. aeruginosa = details: salicylic acid between 5 mM and 60 mM in growth medium; cited from earlier work

Question: What does the source list for `O=C(O)c1ccccc1O` [Salicylic acid, salicylic acid]?
Answer: growth of P. putida LS46 (P. putida LS46 [1]): inhibited; 3-hydroxyalkanoate monomer content C10 (P. putida LS46 [2]; 1.0 mM salicylic acid): 47.90 mol %; 3-hydroxyalkanoate monomer content C12 (P. putida LS46 [2]; 1.0 mM salicylic acid): 1.91 mol %; CDW (P. putida LS46 [2]; 1.0 mM salicylic acid): 3.08 g/L; 3-hydroxyalkanoate monomer content C6 (P. putida LS46 [2]; 2.5 mM salicylic acid): 3.39 mol %; 3-hydroxyalkanoate monomer content C8 (P. putida LS46 [2]; 2.5 mM salicylic acid): 44.06 mol %; 3-hydroxyalkanoate monomer content C10 (P. putida LS46 [2]; 2.5 mM salicylic acid): 52.03 mol %; 3-hydroxyalkanoate monomer content C12 (P. putida LS46 [2]; 2.5 mM salicylic acid): 0.93 mol %; CDW (P. putida LS46 [2]; 2.5 mM salicylic acid): 2.89 g/L; PHA content (P. putida LS46 [2]; 2.5 mM salicylic acid): 28.90 % CDW; 3-hydroxyalkanoate monomer content C6 (P. putida LS46 [2]; 5.0 mM salicylic acid): 2.46 mol %; 3-hydroxyalkanoate monomer content C8 (P. putida LS46 [2]; 5.0 mM salicylic acid): 42.49 mol %; 3-hydroxyalkanoate monomer content C10 (P. putida LS46 [2]; 5.0 mM salicylic acid): 53.36 mol %; 3-hydroxyalkanoate monomer content C12 (P. putida LS46 [2]; 5.0 mM salicylic acid): 0.66 mol %; CDW (P. putida LS46 [2]; 5.0 mM salicylic acid): 2.64 g/L; PHA content (P. putida LS46 [2]; 5.0 mM salicylic acid): 21.89 % CDW; 3-hydroxyalkanoate monomer content C6 (P. putida LS46 [3]): 3.97 mol %; 3-hydroxyalkanoate monomer content C8 (P. putida LS46 [3]): 46.30 mol %; PHA content (P. putida LS46 [3]): 26.07 % CDW; monomer composition of mcl-PHAs produced by P. aeruginosa (P. aeruginosa): altered the monomer composition

Reference: patent US20130288323A1, “MICROBIAL PRODUCTION OF POLYHYDROXYALKANOATES” (UNIVERSITY OF MANITOBA, priority 2010, published 2013)
